Activity calls are given as the source filed them. The rule behind the calls is not given here.
Assays:
Type in all cases: functional, cell-based
[1] = test system: MCF7; assay: Cytotoxicity against human MCF7 cells assessed as reduction in cell viability at 100 nM after 24 hrs in presence of ER antagonist ICI 182,780 by MTT assay
[2] = test system: MCF7; assay: Cytotoxicity against human MCF7 cells assessed as reduction in cell viability <= 100 uM after 24 hrs by MTT assay; settings: dose microM <=100, time 24.0 hrs
[3] = test system: MCF7; assay: Cytotoxicity against human MCF7 cells assessed as 17beta-estradiol-induced reduction in cell viability at 200 uM after 24 hrs by MTT assay
[4] = test system: MCF7; assay: Cytotoxicity against human MCF7 cells assessed as 17beta-estradiol-induced reduction in cell viability at 100 uM after 24 hrs by MTT assay

Row | Structure (SMILES) | Activity [1] | Activity [2] | Activity [3] | Activity [4]
1 | CC(C)[C@@H](C)/C=C/[C@@H](C)[C@H]1CC[C@@H]2[C@]1(C)CC=C1[C@]23C=C[C@]2(C[C@@H](O)CC[C@]12C)OO3 | Active | Active | – | –
2 | CC(C)[C@@H](C)/C=C/[C@@H](C)[C@H]1CC[C@H]2[C@]3(O)C=CC4=CC(=O)CC[C@]4(C)[C@H]3CC[C@]12C | Active | Active | Active | –
3 | CC(C)[C@@H](C)/C=C/[C@@H](C)[C@H]1CC[C@@H]2[C@]1(C)CC[C@H]1[C@]23C=C[C@]2(C[C@@H](O)CC[C@]12C)OO3 | Active | Active | – | Active
4 | CC(C)[C@@H](C)/C=C/[C@@H](C)[C@H]1CCC(=O)[C@]23CC(=O)[C@@H]4CC(=O)CC[C@]4(C)[C@H]2CC[C@]13C | Active | Active | – | –
5 | COC(=O)C[C@]12OC3=CC(=O)CC[C@]3(C)[C@H]1CC[C@]1(C)[C@@H]([C@H](C)/C=C/[C@H](C)C(C)C)CC[C@H]12 | Active | Active | – | –
